Values joined by “and” are separate entries in the source; they are usually repeats but may differ in a detail not shown here. Identical values can stand only once. Like-named read-outs stand apart in the source and are kept apart here.
What was measured:
[1] = biological target: full-length human PTPN2 (TC45) (1-387) (Homo sapiens (Human), UniProt P17706); assay: Enzymatic assay used to determine potency of PTPN2 inhibitors (full length PTPN2 DiFMUP assay); assay type: biochemical; conditions: 0.5 nM PTPN2, 100 μM DiFMUP, 30 min at room temperature
Chain of full-length human PTPN2 (TC45) (1-387) (P17706 other isoform, or with tags, fused parts or gaps): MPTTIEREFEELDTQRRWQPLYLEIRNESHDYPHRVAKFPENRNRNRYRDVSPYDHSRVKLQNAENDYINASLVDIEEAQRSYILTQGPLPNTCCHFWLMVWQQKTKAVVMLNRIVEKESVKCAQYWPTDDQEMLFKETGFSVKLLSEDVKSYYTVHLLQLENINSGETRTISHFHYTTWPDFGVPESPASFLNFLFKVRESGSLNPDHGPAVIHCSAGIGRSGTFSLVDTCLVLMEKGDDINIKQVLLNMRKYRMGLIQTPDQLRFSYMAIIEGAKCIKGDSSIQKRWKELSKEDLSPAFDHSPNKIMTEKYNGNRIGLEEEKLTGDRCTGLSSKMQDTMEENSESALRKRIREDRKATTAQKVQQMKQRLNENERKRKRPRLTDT
Description: Compound activity was determined in an in vitro enzymatic assay using untagged, full-length human PTPN2 (TC45) (1-387) protein. PTPN2 was produced in E. coli as a GST-TEV fusion and the GST was removed by TEV digestion, followed by additional purification to yield full-length PTPN2 (SEQ ID 1). PTPN2 enzyme was diluted in assay buffer (50 mM HEPES pH7.5, 0.2 mM EDTA, 1 mM DTT, 0.02% Brij-35, 0.02% BSA) to a final concentration of 0.5 nM and added to black 384-well non-binding plates (Greiner, 781900). Compounds were subsequently added using a Tecan D300e dispenser. Following a 10 min incubation at room temperature, DiFMUP substrate (ThermoFisher, D22065) was added to a final concentration of 100 μM. Plates were transferred to a SpectraMax plate reader (Molecular Devices) and fluorescence intensity was measured (ex 358, em 455) after a 30 min incubation at room temperature. […] A four-parameter curve fit was used to determine IC50 values from % inhibition data.

[2] = test system: murine B16F10 melanoma cell line; assay: B16F10 IFNγ-induced cellular growth inhibition assay (xCELLigence RTCA); assay type: cell-based; conditions: B16F10 cells, 1 ng/mL mouse IFNγ, AUC of growth curve, read-out: B16 IFNγ Mediated Growth Inhibition Assay: AVG IC50
Description: Compound activity was determined using an interferon gamma (IFNγ)-induced cellular growth inhibition assay with the murine B16F10 melanoma cell line on an Agilent xCELLigence Real-Time Cell Analysis platform (RTCA). RTCA E-Plate View 96 plates (Agilent, 300601010) were pre-equilibrated with 50 μL of assay media (DMEM+10% FBS, Gibco 10566-024, Gibco 10082-147) at 37° C. in a humidified incubator before taking an initial measurement of impedance (sweep). B16F10 cells cultured in assay media were dissociated with TrypLE Express (Gibco 12605-010) for five minutes at 37° C., diluted in 3 volumes of assay buffer, centrifuged for 5 minutes at 500×g at room temperature before diluting cells to 7,700 cells/mL in assay media, plating 130 μL/well (1,000 cells/well) in the inner 60 wells of the assay plate, and adding 150 μL of assay media to the outer wells of the plate. Cells were incubated at room temperature for 20 min to allow cells to settle before placing them in the xCELLigence reader and incubating overnight at 37° C., sweeping wells every 15 minutes. After 24 hours, well readings were paused, plates were removed from the incubator and compounds were added using a Tecan D300e dispenser. All wells were normalized to a final concentration of 0.5% DMSO. Following a 30 min incubation at 37° C., recombinant mouse IFNγ (R&D Systems™ 485MI100) was diluted to 10 ng/mL in assay media and 20 μL was added to assay wells (1 ng/mL final concentration). Assay plates were placed in the xCELLigence reader and swept every 15 minutes.

Compound | IC50 [1] | IC50 ([2]; Mus musculus, B16-F10, 48 h) | IC50 ([2]; 48 hours)
O=C1CN(c2c(O)cc(CCN3CCC4(CCC4)C3)cc2F)S(=O)(=O)N1 [Example 99] | 2 nM | 0.183 µM | –
O=C1CN(c2c(O)cc(CC3CCCN(CC4CCCC4)C3)cc2F)S(=O)(=O)N1 (stereo not drawn) [Example 34] | 43 nM | 9.96 µM | –
CC1(C)CCN(CCc2cc(O)c(N3CC(=O)NS3(=O)=O)c(F)c2)C1 [Example 108] | 2 nM | 0.129 µM | –
CC(C)CCN1CCCCC1Cc1ccc(O)c(N2CC(=O)NS2(=O)=O)c1F (stereo not drawn) [Example 76] | 6 nM | 8.92 µM | –
CCC1CCCN1CCc1cc(O)c(N2CC(=O)NS2(=O)=O)c(F)c1 (stereo not drawn) [Example 84, 5-(4-(2-(2-ethylpyrrolidin-1-yl)ethyl)-2-fluoro-6-hydroxyphenyl)-1,2,5-thiadiazolidin-3-one 1,1-dioxide] | 13 nM | 13.7 µM | –
CC(C)(C)CN1CCC(Cc2cc(O)c(N3CC(=O)NS3(=O)=O)c(F)c2)C1 (stereo not drawn) [Example 20] | 15 nM | 2.62 µM | –
O=C1CN(c2c(O)cc(CC3CCN(Cc4ncco4)C3)cc2F)S(=O)(=O)N1 (stereo not drawn) [Example 6] | 20 nM | > 100 µM | –
CN1CCCC(Cc2cc(O)c(N3CC(=O)NS3(=O)=O)c(F)c2)C1 (stereo not drawn) [Example 31, 5-(2-fluoro-6-hydroxy-4-((1-methylpiperidin-3-yl)methyl)phenyl)-1,2,5-thiadiazolidin-3-one 1,1-dioxide] | 47 nM | 29.7 µM | –
CC(C)CCC1CCN(CCc2cc(O)c(N3CC(=O)NS3(=O)=O)c(F)c2)C1 (stereo not drawn) [Example 88] | 3 nM | 1.02 µM | –
O=C1CN(c2c(O)cc(CCN3CCC(CC(F)(F)F)C3)cc2F)S(=O)(=O)N1 (stereo not drawn) [Example 130] | 1 nM | 0.208 µM | –
CC(C)(C)C1CCN(CCc2cc(O)c(N3CC(=O)NS3(=O)=O)c(F)c2)CC1 [Example 118] | 3 nM | 3.22 µM | –
O=C1CN(c2c(O)cc(CC3CCCNC3)cc2F)S(=O)(=O)N1 (stereo not drawn) [Example 54] | 75 nM | 25.8 µM | –
O=C1CN(c2c(O)cc(CCN3CCC(F)(F)CC3)cc2F)S(=O)(=O)N1 [Example 98] | 5 nM | 1.05 µM | –
O=C1CN(c2c(O)cc(CCN3CCC4(CCC4)CC3)cc2F)S(=O)(=O)N1 [Example 105] | 3 nM | 0.219 µM | –
O=C1CN(c2c(O)cc(CCN3CC[C@@H](F)C3)cc2F)S(=O)(=O)N1 [Example 95] | 2 nM | 0.432 µM | –
O=C1CN(c2c(O)cc(CC3CCCN(Cc4ccn[nH]4)C3)cc2F)S(=O)(=O)N1 (stereo not drawn) [Example 53] | 35 nM | > 100 µM | –
CC[C@@H]1CCN(CCc2cc(O)c(N3CC(=O)NS3(=O)=O)c(F)c2)C1 [Example 110] | 2 nM | 0.127 µM | –
O=C1CN(c2c(O)cc(CC3CCN(CC4CCOC4)C3)cc2F)S(=O)(=O)N1 (stereo not drawn) [Example 15] | 24 nM | > 48 µM | –
CC1(C)CCN(CCc2cc(O)c(N3CC(=O)NS3(=O)=O)c(F)c2)CC1 [Example 93] | 3 nM | 0.475 µM | –
CC(C)C[C@H]1CCN(CCc2cc(O)c(N3CC(=O)NS3(=O)=O)c(F)c2)C1 (single isomer, unassigned) [Example 119] | 2 nM and 3 nM | 2.43 µM | 1.6 µM
CCCCN1CCC(Cc2cc(O)c(N3CC(=O)NS3(=O)=O)c(F)c2)C1 (stereo not drawn) [Example 8] | 88 nM | 18.6 µM | –
CCCN1CCC(Cc2cc(O)c(N3CC(=O)NS3(=O)=O)c(F)c2)C1 (stereo not drawn) [Example 11] | 18 nM | 5.18 µM | –
O=C1CN(c2c(O)cc(CCN3CCC4(CC3)CC4)cc2F)S(=O)(=O)N1 [Example 107] | 2 nM | 0.256 µM | –
CC(C)N1CCC(Cc2cc(O)c(N3CC(=O)NS3(=O)=O)c(F)c2)C1 (stereo not drawn) [Example 2] | 14 nM | 28.2 µM | –
CCC1CNCC1Cc1cc(O)c(N2CC(=O)NS2(=O)=O)c(F)c1 (stereo not drawn) [Example 30] | 13 nM | > 13 µM | –
CC(C)(C)CCN1CCC(Cc2cc(O)c(N3CC(=O)NS3(=O)=O)c(F)c2)C1 (stereo not drawn) [Example 23] | 14 nM | 4.33 µM | –

Compound | IC50 [1] | IC50 ([2]; Mus musculus, B16-F10, 48 h) | IC50 ([2]; 48 hours)
CC1(F)CCN(CCc2cc(O)c(N3CC(=O)NS3(=O)=O)c(F)c2)C1 (stereo not drawn) [Example 106] | 2 nM | 0.256 µM | –
CC(C)CN1CCCC(Cc2cc(O)c(N3CC(=O)NS3(=O)=O)c(F)c2)C1 (stereo not drawn) [Example 50] | 91 nM | > 100 µM | –
O=C1CN(c2c(O)cc(CC3CCN(CCN4CCCCC4)C3)cc2F)S(=O)(=O)N1 (stereo not drawn) [Example 5] | 7 nM | 84.6 µM | –
CCCCN1CCCC(Cc2cc(O)c(N3CC(=O)NS3(=O)=O)c(F)c2)C1 (stereo not drawn) [Example 38] | 154 nM | > 100 µM | –
CC(C)CCN1CCCC[C@H]1Cc1ccc(O)c(N2CC(=O)NS2(=O)=O)c1F (single isomer, unassigned) [Example 82] | 76 nM | 36.3 µM | –
O=C1CN(c2c(O)cc(CC3CCCN(Cc4cn[nH]c4)C3)cc2F)S(=O)(=O)N1 (stereo not drawn) [Example 42] | 12 nM | > 100 µM | –
O=C1CN(c2c(O)cc(CC3CCN(Cc4cnco4)C3)cc2F)S(=O)(=O)N1 (stereo not drawn) [Example 4] | 14 nM | > 100 µM | –
O=C1CN(c2c(O)cc(CC3CCN(Cc4ncc[nH]4)C3)cc2F)S(=O)(=O)N1 (stereo not drawn) [Example 17] | 7 nM | > 52 µM | –
O=C1CN(c2c(O)cc(CCN3CCC(F)C3)cc2F)S(=O)(=O)N1 (stereo not drawn) [Example 92] | 3 nM | 0.504 µM | –
CC(C)CCN1CCCC[C@@H]1Cc1ccc(O)c(N2CC(=O)NS2(=O)=O)c1F (single isomer, unassigned) [Example 81] | 3 nM | 0.363 µM | –
CC(C)CCN1CCC(CCc2cc(O)c(N3CC(=O)NS3(=O)=O)c(F)c2)C1 (stereo not drawn) [Example 64] | 89 nM | > 100 µM | –
CN(C)CCN1CCC(Cc2cc(O)c(N3CC(=O)NS3(=O)=O)c(F)c2)C1 (stereo not drawn) [Example 3] | 3 nM | > 100 µM | –
CCCCCN1CCC(Cc2cc(O)c(N3CC(=O)NS3(=O)=O)c(F)c2)C1 (stereo not drawn) [Example 24] | 15 nM | 5.9 µM | –
CC(C)CN1CCC(Cc2cc(O)c(N3CC(=O)NS3(=O)=O)c(F)c2)C1 (stereo not drawn) [Example 9] | 21 nM | 13.2 µM | –
O=C1CN(c2c(O)cc(CCN3CC[C@H](F)C3)cc2F)S(=O)(=O)N1 [Example 94] | 2 nM | 0.469 µM | –
CC(C)CCN1CCC(Cc2cc(O)c(N3CC(=O)NS3(=O)=O)c(F)c2)C1 (stereo not drawn) [Example 19] | 12 nM | 8.43 µM | –
CC(C)CN1CCC(CCc2cc(O)c(N3CC(=O)NS3(=O)=O)c(F)c2)C1 (stereo not drawn) [Example 63] | 75 nM | > 100 µM | –
O=C1CN(c2c(O)cc(CCN3CCC(CO)C3)cc2F)S(=O)(=O)N1 (stereo not drawn) [Example 102] | 2 nM | 0.605 µM | –
O=C1CN(c2c(O)ccc(CC3CCCCN3CCC(F)(F)F)c2F)S(=O)(=O)N1 (stereo not drawn) [Example 77] | 4 nM | > 100 µM | –
CCCCCCN1CCC(Cc2cc(O)c(N3CC(=O)NS3(=O)=O)c(F)c2)C1 (stereo not drawn) [Example 13] | 13 nM | 36.2 µM | –
O=C1CN(c2c(O)cc(CCN3CC(CF)C3)cc2F)S(=O)(=O)N1 [Example 141] | 3 nM | 0.37 µM | –
CCN1CCCC(Cc2cc(O)c(N3CC(=O)NS3(=O)=O)c(F)c2)C1 (stereo not drawn) [Example 51] | 63 nM | 27.6 µM | –
CN1CCC(CCc2cc(O)c(N3CC(=O)NS3(=O)=O)c(F)c2)C1 (stereo not drawn) [Example 61, 5-(2-fluoro-6-hydroxy-4-(2-(1-methylpyrrolidin-3-yl)ethyl)phenyl)-1,2,5-thiadiazolidin-3-one 1,1-dioxide] | 19 nM | > 41 µM | –
O=C1CN(c2c(O)cc(CCC3CCNC3)cc2F)S(=O)(=O)N1 (stereo not drawn) [Example 62] | 16 nM | > 100 µM | –
O=C1CN(c2c(O)cc(CC3CCCN(Cc4ccoc4)C3)cc2F)S(=O)(=O)N1 (stereo not drawn) [Example 45] | 30 nM | 55.4 µM | –
O=C1CN(c2c(O)cc(CC3CCCN(Cc4cnco4)C3)cc2F)S(=O)(=O)N1 (stereo not drawn) [Example 48] | 223 nM | > 33 µM | –

From US20250257059A1, “PROTEIN TYROSINE PHOSPHATASE INHIBITORS AND USES THEREOF” (Nerio Therapeutics, Inc., priority 2022, published 2025)
